Values of other authors, collected in patent US20110142766A1, “Effervescent Multi-Vitamin Formulation and Methods of Use Thereof” (priority 2009, published 2011).

How the values were obtained:
vision loss = conditions: group treated with zinc compared with a group treated with a placebo
[1] = system: age-related macular degeneration

In the case of `[Zn]` [zinc], the “reduction in vision loss” value (vision loss) is given as “statistically significant reduction in vision loss”, the “reduction of risk of (central) vision loss” value ([1]; people at high risk for developing advanced AMD) is given as “about 11%” and the “reduction of risk of developing advanced stages of AMD” value ([1]; people at high risk for developing advanced AMD (intermediate AMD, or advanced AMD in one eye only)) is given as “about 21%”.
